Values quoted from earlier work, collected in patent US11752185B2, “Powderized cannabis oil” (Hemp Synergistics, priority 2020, dated 2023).

Settings: clinical studies; EPIDIOLEX context: seizures associated with Lennox-Gastaut syndrome or Dravet syndrome

For `C=C(C)[C@@H]1CCC(C)=C[C@H]1c1c(O)cc(CCCCC)cc1O` [CBD, cannabidiol], which therapeutic dose is on record?
The therapeutic dose was 10 mg/kg/day.
